Data taken from PubChem BioAssay (NCI).
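Five compound concentrations were applied to cells in 96-well plates for 48 hours; endpoints were derived by simple linear interpolation of the resulting dose-response curve. TGI denotes the concentration required for complete inhibition of growth.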

Tests used:
Assay in all cases: inhibition of tumour cell growth, NCI panel, 48 h
IGROV1 ovarian = tested on: IGROV1 ovarian
M19-MEL melanoma = tested on: M19-MEL melanoma
SF-295 CNS = tested on: SF-295 CNS
A498 renal = tested on: A498 renal
SNB-19 CNS = tested on: SNB-19 CNS
ACHN renal = tested on: ACHN renal
HCC-2998 colon = tested on: HCC-2998 colon
SK-MEL-2 melanoma = tested on: SK-MEL-2 melanoma
HCT-15 colon = tested on: HCT-15 colon
HOP-92 NSCLC = tested on: HOP-92 NSCLC
OVCAR-4 ovarian = tested on: OVCAR-4 ovarian
OVCAR-8 ovarian = tested on: OVCAR-8 ovarian
SF-539 CNS = tested on: SF-539 CNS
SNB-75 CNS = tested on: SNB-75 CNS
SN12C renal = tested on: SN12C renal
SW-620 colon = tested on: SW-620 colon
SK-MEL-28 melanoma = tested on: SK-MEL-28 melanoma
UO-31 renal = tested on: UO-31 renal
OVCAR-3 ovarian = tested on: OVCAR-3 ovarian
SNB-78 CNS = tested on: SNB-78 CNS
KM20L2 colon = tested on: KM20L2 colon
SR leukemia = tested on: SR leukemia
DLD-1 colon = tested on: DLD-1 colon
UACC-62 melanoma = tested on: UACC-62 melanoma
SK-MEL-5 melanoma = tested on: SK-MEL-5 melanoma
TK-10 renal = tested on: TK-10 renal
SK-OV-3 ovarian = tested on: SK-OV-3 ovarian
COLO 205 colon = tested on: COLO 205 colon
RXF 393 renal = tested on: RXF 393 renal
M14 melanoma = tested on: M14 melanoma
NCI-H522 lung = tested on: NCI-H522 lung
NCI-H23 lung = tested on: NCI-H23 lung
LOX IMVI melanoma = tested on: LOX IMVI melanoma
SF-268 CNS = tested on: SF-268 CNS
DMS 114 small cell lung = tested on: DMS 114 small cell lung
RPMI-8226 leukemia = tested on: RPMI-8226 leukemia
K-562 leukemia = tested on: K-562 leukemia
EKVX NSCLC = tested on: EKVX NSCLC
NCI-H226 lung = tested on: NCI-H226 lung
XF 498 CNS = tested on: XF 498 CNS
NCI-H460 lung = tested on: NCI-H460 lung
U251 CNS = tested on: U251 CNS
CCRF-CEM leukemia = tested on: CCRF-CEM leukemia
HOP-62 NSCLC = tested on: HOP-62 NSCLC
UACC-257 melanoma = tested on: UACC-257 melanoma
786-0 renal = tested on: 786-0 renal
MOLT-4 leukemia = tested on: MOLT-4 leukemia
HOP-18 NSCLC = tested on: HOP-18 NSCLC
MALME-3M melanoma = tested on: MALME-3M melanoma
CAKI-1 renal = tested on: CAKI-1 renal
KM12 colon = tested on: KM12 colon
HCT-116 colon = tested on: HCT-116 colon
A549 NSCLC = tested on: A549 NSCLC
HT29 colon = tested on: HT29 colon
DMS 273 small cell lung = tested on: DMS 273 small cell lung
OVCAR-5 ovarian = tested on: OVCAR-5 ovarian
HL-60(TB) leukemia = tested on: HL-60(TB) leukemia
LXFL 529 NSCLC = tested on: LXFL 529 NSCLC

Measured: TGI

CCOC(=O)C1=C(O)c2c(OC)ccc(OC)c2C(=O)C1=O
not listed: LXFL 529 NSCLC
> 100 µM: all other assays above

O=C1NC2(CCCCC2)C2=C1CCCCC2
not listed: HCC-2998 colon | KM20L2 colon | RPMI-8226 leukemia | NCI-H226 lung
> 100 µM: all other assays above
